Test results published in patent publication US8143290B2, “Chemical compounds 572” (AstraZeneca AB, priority 2006, dated 2012).

The molecules below were run against T1, recombinant human GR (Homo sapiens, UniProt P04150) (assay: Human Glucocorticoid Receptor (GR) Assay, fluorescence polarization). Details: GS Red tracer, incubated 2 h at r.t., XLfit model 205, read-out: GRhuFL_FP_v2 Mean IC50.
T1 construct: purchased Panvera/Invitrogen P2812 (kit P2893)
T1 sequence (P04150 1-777): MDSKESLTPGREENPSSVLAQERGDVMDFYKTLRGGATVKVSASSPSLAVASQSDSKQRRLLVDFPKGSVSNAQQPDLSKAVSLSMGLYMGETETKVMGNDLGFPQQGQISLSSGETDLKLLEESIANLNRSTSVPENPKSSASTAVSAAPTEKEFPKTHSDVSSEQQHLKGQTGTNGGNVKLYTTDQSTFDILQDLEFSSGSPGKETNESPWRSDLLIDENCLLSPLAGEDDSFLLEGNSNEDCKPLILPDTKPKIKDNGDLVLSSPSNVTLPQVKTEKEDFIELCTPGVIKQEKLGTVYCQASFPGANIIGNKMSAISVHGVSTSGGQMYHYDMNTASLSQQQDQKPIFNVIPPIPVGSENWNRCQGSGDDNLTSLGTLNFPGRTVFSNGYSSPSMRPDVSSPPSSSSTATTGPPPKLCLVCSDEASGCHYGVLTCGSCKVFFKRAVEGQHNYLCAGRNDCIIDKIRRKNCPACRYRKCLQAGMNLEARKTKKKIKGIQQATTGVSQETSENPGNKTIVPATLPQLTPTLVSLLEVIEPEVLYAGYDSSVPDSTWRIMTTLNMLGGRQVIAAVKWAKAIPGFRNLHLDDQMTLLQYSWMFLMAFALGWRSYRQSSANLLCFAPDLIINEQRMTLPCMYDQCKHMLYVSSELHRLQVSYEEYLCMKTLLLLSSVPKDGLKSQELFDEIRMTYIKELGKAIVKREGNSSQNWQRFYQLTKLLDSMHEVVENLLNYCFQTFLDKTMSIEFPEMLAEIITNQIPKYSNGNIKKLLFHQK
Format: binding
Method: Human Glucocorticoid Receptor (GR) Assay
The assay is based on a commercial kit from Panvera/Invitrogen (Part number P2893). The assay technology is fluorescence polarization. […] The GR and Stabilizing Peptide reagents are stored at −70° C. while the GS Red is stored at −20° C. Also included in the kit are 1M DTT (Panvera, Part number P2325, stored at −20° C.) and GR Screening buffer 10× (Panvera, Part number P2814, stored at −70° C. initially but once thawed stored at r.t.). Avoid repeated freeze/thaws for all reagents. The GR Screening buffer 10× comprises 100 mM potassium phosphate, 200 mM sodium molybdate, 1 mM EDTA and 20% DMSO.
0% control was 100% DMSO and 100% control was […] Dexamethasone. Background solution (8 μL; assay buffer 10×, Stabilizing Peptide, DTT and ice cold MQ water) was added to the background wells. GS Red solution (7 μL; assay buffer 10×, Stabilizing Peptide, DTT, GS Red and ice cold water) was added to all wells except background wells. GR solution (7 μL; assay buffer 10×, Stabilizing Peptide, DTT, GR and ice cold water) was added to all wells. The plate was sealed and incubated in a dark at r.t. for 2 h.

SMILES	IC50 [nM]
CCC[C@H](NC(=O)CO)[C@H](Oc1ccc2c(cnn2-c2ccc(F)cc2)c1)c1ccccc1 [Example 91, N-((1R,2S)-1-(1-(4-fluorophenyl)-1H-indazol-5-yloxy)-1-phenylpentan-2-yl)-2-hydroxyacetamide]	5.2
CCc1ccc([C@@H](Oc2ccc3c(cnn3-c3ccc(F)cc3)c2)[C@H](C)NC(=O)CF)cc1 [Example 50, N-[(1R,2S)-1-(4-ethylphenyl)-1-[1-(4-fluorophenyl)indazol-5-yl]oxy-propan-2-yl]-2-fluoro-acetamide]	2.9
CC(=O)NC(C)C(Oc1cc2cnn(-c3ccc(F)cc3)c2cc1Cl)c1ccc(F)cc1 (racemic) [Example 100, N-[(1RS,2SR)-1-[6-chloro-1-(4-fluorophenyl)indazol-5-yl]oxy-1-(4-fluorophenyl)propan-2-yl]acetamide]	9.2
COCC(=O)N[C@@H](C)[C@H](Oc1ccc2c(cnn2-c2ncccn2)c1)c1ccccc1 [Example 120, 2-Methoxy-N-[1-methyl-2-phenyl-2-(1-pyrimidin-2-yl-1H-indazol-5-yloxy)-ethyl]-acetamide]	210
COCC(=O)N[C@@H](COC)[C@H](Oc1ccc2c(cnn2-c2ccc(F)cc2)c1)c1cccc(F)c1 [Example 111, N-[(1)-(2R)-(3-Fluorophenyl)-2-{[1-(4-fluorophenyl)-1H-indazole-5-yl]oxy}-1-(methoxymethyl)ethyl]-2-methoxyacetamide]	15
C[C@H](NC(=O)CO)[C@H](Oc1ccc2c(cnn2-c2ccc(F)cc2)c1)c1ccccc1 [Example 16, N-[(1R,2S)-1-[1-(4-fluorophenyl)indazol-5-yl]oxy-1-phenyl-propan-2-yl]-2-hydroxy-acetamide]	2.4
CC(C)C[C@H](NC(=O)C(F)(F)F)[C@H](Oc1ccc2c(cnn2-c2ccc(F)cc2)c1)c1cccc(F)c1 [Example 110, 2,2,2-Trifluoro-N-{(1S)-1-[(R)-(3-Fluorophenyl)-{[1-(4-fluorophenyl)-1H-indazole-5-yl]oxy}methyl}-3-methylbutyl}-acetamide]	29
CCSCc1ccc([C@@H](Oc2ccc3c(cnn3-c3ccc(F)cc3)c2)[C@H](C)NC(=O)C(F)(F)F)cc1 [Example 25, N-[(1R,2S)-1-[4-(ethylsulfanylmethyl)phenyl]-1-[1-(4-fluorophenyl)indazol-5-yl]oxy-propan-2-yl]-2,2,2-trifluoro-acetamide]	11
COc1cccc([C@@H](Oc2ccc3c(cnn3-c3ccc(F)cc3)c2)[C@H](C)NC(=O)C(=O)N(C)C)c1 [Example 80, N-[(1R,2S)-1-[1-(4-Fluorophenyl)indazol-5-yl]oxy-1-(3-methoxyphenyl)propan-2-yl]-N′,N′-dimethyl-oxamide]	3.7

Second part, the molecule after the results:

IC50 [nM]	SMILES
5	Cc1ccc(F)cc1[C@@H](Oc1ccc2c(cnn2-c2ccc(F)cc2)c1)[C@H](C)NC(=O)C(C)(C)F [Example 249, 2-fluoro-N-[(1R,2S)-1-(5-fluoro-2-methyl-phenyl)-1-[1-(4-fluorophenyl)indazol-5-yl]oxy-propan-2-yl]-2-methyl-propanamide]
3.9	COc1ccc([C@@H](Oc2ccc3c(cnn3-c3ccc(F)cc3)c2)[C@H](C)NC(=O)C(C)(C)C)cc1F [Example 177, N-[(1R,2S)-1-(3-fluoro-4-methoxy-phenyl)-1-[1-(4-fluorophenyl)indazol-5-yl]oxy-propan-2-yl]-2,2-dimethyl-propanamide]
3	C[C@H](NC(=O)C(F)(F)F)[C@H](Oc1ccc2c(cnn2-c2cccc(CO)c2)c1)c1ccccc1 [Example 144, 2,2,2-trifluoro-N-((1R,2S)-1-(1-(3-(hydroxymethyl)phenyl)-1H-indazol-5-yloxy)-1-phenylpropan-2-yl)acetamide]
3.6	C[C@H](NC(=O)C(F)(F)F)[C@H](Oc1ccc2c(cnn2-c2ccc(F)cc2)c1)c1cccc(F)c1 [Example 152, 2,2,2-trifluoro-N-[(1R,2S)-1-(3-fluorophenyl)-1-[1-(4-fluorophenyl)indazol-5-yl]oxy-propan-2-yl]acetamide]
7.4	Cc1cnc(C(=O)N[C@@H](C)[C@H](Oc2ccc3c(cnn3-c3ccc(F)cc3)c2)c2cccc(Cl)c2)s1 [Example 199, N-[(1R,2S)-1-(3-chlorophenyl)-1-[1-(4-fluorophenyl)indazol-5-yl]oxy-propan-2-yl]-5-methyl-1,3-thiazole-2-carboxamide]
3.1	COc1ccccc1[C@@H](Oc1ccc2c(cnn2-c2ccc(F)cc2)c1)[C@H](C)NC(=O)C1(C)CC1 [Example 227, N-[(1R,2S)-1-[1-(4-fluorophenyl)indazol-5-yl]oxy-1-(2-methoxyphenyl)propan-2-yl]-1-methyl-cyclopropane-1-carboxamide]
12	CC(C)(C)C(=O)NC(C(Oc1ccc2c(cnn2-c2ccc(F)cc2)c1)c1ccccc1)C(F)(F)F (single isomer, unassigned) [Example 147D2E2, N-(1,1,1-trifluoro-3-(1-(4-fluorophenyl)-1H-indazol-5-yloxy)-3-phenylpropan-2-yl)pivalamide]
3.3	C[C@H](NC(=O)C1(C)CC1)[C@H](Oc1ccc2c(cnn2-c2ccc(F)cc2)c1)c1cccc(Cl)c1 [Example 218, N-[(1R,2S)-1-(3-chlorophenyl)-1-[1-(4-fluorophenyl)indazol-5-yl]oxy-propan-2-yl]-1-methyl-cyclopropane-1-carboxamide]
4.7	Cc1ccc([C@@H](Oc2ccc3c(cnn3-c3ccc(F)cc3)c2)[C@H](C)NC(=O)C(F)(F)F)c(C)c1 [Example 154, N-[(1R,2S)-1-(2,4-dimethylphenyl)-1-[1-(4-fluorophenyl)indazol-5-yl]oxy-propan-2-yl]-2,2,2-trifluoro-acetamide]
8.5	Cc1ccc(C)c([C@@H](Oc2ccc3c(cnn3-c3ccc(F)cc3)c2)[C@H](C)NC(=O)C(C)(C)CO)c1 [Example 254, N-[(1R,2S)-1-(2,5-dimethylphenyl)-1-[1-(4-fluorophenyl)indazol-5-yl]oxy-propan-2-yl]-3-hydroxy-2,2-dimethyl-propanamide]
6.2	Cc1cc([C@@H](Oc2ccc3c(cnn3-c3ccc(F)cc3)c2)[C@H](C)NC(=O)C(F)(F)F)ccc1Cl [Example 168, N-[(1R,2S)-1-(4-chloro-3-methyl-phenyl)-1-[1-(4-fluorophenyl)indazol-5-yl]oxy-propan-2-yl]-2,2,2-trifluoro-acetamide]
12	COc1cccc([C@@H](Oc2ccc3c(cnn3-c3ccc(F)cc3)c2)[C@H](C)NC(=O)CNC(C)=O)c1 [Example 269, N-[[(1R,2S)-1-[1-(4-fluorophenyl)indazol-5-yl]oxy-1-(3-methoxyphenyl)propan-2-yl]carbamoylmethyl]acetamide]
3.1	COc1cccc([C@@H](Oc2ccc3c(cnn3-c3ccc(F)cc3)c2)[C@H](C)NC(=O)c2nccs2)c1 [Example 135, N-[(1R,2S)-1-[1-(4-fluorophenyl)indazol-5-yl]oxy-1-(3-methoxyphenyl)propan-2-yl]1,3-thiazole-2-carboxamide]
23	C[C@H](NC(=O)C(F)(F)F)[C@H](Oc1ccc2c(cnn2-c2ccc(CN(C)C)cc2)c1)c1ccccc1 [Example 143, N-((1R,2S)-1-(1-(4-((dimethylamino)methyl)phenyl)-1H-indazol-5-yloxy)-1-phenylpropan-2-yl)-2,2,2-trifluoroacetamide]
